Patent US7563758B2, “Enzymatic production of peracids using Lactobacilli having perhydrolysis activity” (E. I. du Pont de Nemours and Company, priority 2005, dated 2009)

Columns and labels:
Experiment in all cases: Minimum biocidal concentration (MBC) of peracetic acid, XTT microtiter assay
Format in all cases: cell-based
Details in all cases: 5-log kill; exposure at room temperature (e.g., 10 minutes)
[1] = tested on: Pseudomonas aeruginosa ATCC 15442
Description: (§1) The method described by J. Gabrielson, et al. (J. Microbiol. Methods 50: 63-73 (2002)) can be employed for determination of the Minimum Biocidal Concentration (MBC) of peracids, or of hydrogen peroxide and enzyme substrates. The assay method is based on XTT reduction inhibition, where XTT ((2,3-bis[2-methoxy-4-nitro-5-sulfophenyl]-5-[(phenylamino)carbonyl]-2H-tetrazolium, inner salt, monosodium salt) is a redox dye that indicates microbial respiratory activity by a change in optical density (OD) measured at 490 nm or 450 nm. However, there are a variety of other methods available for testing the activity of disinfectants and antiseptics including, but not limited to viable plate counts, direct microscopic counts, dry weight, turbidity measurements, absorbance, and bioluminescence (see, for example Brock, Semour S., Disinfection, Sterilization, and Preservation, 5th edition, Lippincott Williams & Wilkins, Philadelphia, Pa., USA; 2001).
(§2) The minimum biocidal concentration (MBC) of peracid required to produce a 5-log kill of Staphylococcus aureus ATCC 6538, Salmonella cholerasuis ATCC 10708 and Pseudomonas aeruginosa ATCC 15442 was determined according to the following procedure. Cultures were grown in 5 mL LB broth (Media Tech, Inc.) for 17-24 hours at 35° C. with shaking and subsequently plated on Trypticase Soy Agar (VWR). At least 3 consecutive daily transfers were made. Plates were incubated for 20-24 hours at 35° C.±2° C. Each culture was removed from the agar surface by flooding with 5-7 mL of phosphate buffer, pH 7.2. (e.g., Butterflies or equivalent) and transferred into a sterile flask. The OD600 of the culture suspension was measured and the cell suspension was diluted in phosphate buffer to a final cell density between 1-2 E+05 and 1-2 E+06 CFU/mL, where the final cell concentration was adjusted to produce the concentration needed for the number of logs kill required. The peracetic acid solution to be tested was diluted by doubling dilutions from 600 ppm to 0.5 ppm in sterile water. Test inoculum (100 μL) was added each well of a 96-well microtiter plate, columns 1-11; column 12 was employed for a blank check using sterile dd water in place of inoculum. Decreasing concentrations of peracid solution (100 μL) was added across columns 1-10, and the plates held at room temperature for the required exposure time (e.g., 10 minutes). A Neutralization/detection plate was prepared with Letheen Broth (Difco #268110) and XTT (4 mM stock in water, 2,3-bis-[2-methoxy-4-nitro-5-sulfophenyl]-2H-tetrazolium-5-carboxanilide inner salt); 190 μL was added to each well of a fresh 96 well microtiter plate. From each well of the exposure plate, a 10 μL aliquot was transferred to the neutralization/detection plate. An OD450 reading was measured, and the plate incubated at 35° C.±2° C. for 24 hours. A second OD450 was measured, where orange color was indicative of cell growth. A suspension to test organism(s) was prepared equal to 1-2 E+04 CFU/mL. Add A 10 μL aliquot of this suspension was added to each negative well except column 12, and the plates incubated at 35° C.±2° C. for 24 hours. […] The MBC of peracetic acid generated enzymatically from triacetin by Lactobacillus plantarum ATCC BAA793 (Table 11) indicated equivalency with commercial peracetic acid.

[2] = tested on: Staphylococcus aureus ATCC 6538
Description: as §1, §2

[3] = tested on: Salmonella cholerasuis ATCC 10708
Description: as §1, §2

Row | Compound | MBC in ppm PAA, Pseudomonas aeruginosa ATCC 15442 [1] | MBC in ppm PAA, Staphylococcus aureus ATCC 6538 [2] | MBC in ppm PAA, Salmonella cholerasuis ATCC 10708 [3] [ppm PAA]
1 | CC(=O)OO [L. plantarum ATCC BAA793, peracetic acid] | 1.4 ppm PAA | 1.4 ppm PAA | 1.4
2 | CC(=O)OO [Sigma Lot # 07726EC, peracetic acid, reference compound] | 2.4-14 ppm PAA | 1.8-2.4 ppm PAA | 
